Measured values published in patent US20220041957A1, “GLUCAMIDE-BASED SURFACTANTS” (Clariant International Ltd., priority 2018, published 2022).

Assays:
[1] = Wetting test on cotton swatches; type: physicochemical; conditions: 0.1 wt. % surfactant solution in water; for Wetting Performance: rating in words; for Wetting time: time until swatch sinks to bottom
Procedure: Cotton swatches (ISO 8022, obtained from wfk-Testgewebe GmbH) were placed in 600 mL beaker, filled with the corresponding 0.1 wt. % surfactant solution in water. The time between placing the swatches into the solution and sinking to the bottom was measured.

Foam (collapse) test = type: physicochemical; conditions: 20 mL of 1 wt. % solution, 20 shakes; for Foam Height, 2 min: after 2 min; for Foam Height, 3 min: after 3 min; for Foam Height, 5 min: after 5 min; for Foam Height, Initial: directly after shaking
Procedure: 20 mL of 1 wt. % solution of each substance were placed into a graduated 100 mL measurement cylinder, which was sealed with a stopper. Foam was generated by 20 shakes. The foam height was determined as mL foam above the aqueous layer directly after shaking, after 2, 3 and 5 min.

| Wetting Performance [1] | Wetting time [1] [s] | Foam Height, 2 min (Foam (collapse) test) [mL] | Foam Height, 3 min (Foam (collapse) test) [mL] | Foam Height, 5 min (Foam (collapse) test) [mL] | Foam Height, Initial (Foam (collapse) test) [mL] | SMILES |
| --- | --- | --- | --- | --- | --- | --- |
| poor | >300 | 67 | 50 | 33 | 89 | CN(C[C@H](O)[C@@H](O)[C@H](O)[C@H](O)CO)C(=O)CCCCCCCCCCCCCCCO [Example 4] |
| good | 60 | 60 | 33 | 19 | 80 | CCCCCCCCCCCC(O)CC(=O)N(C)C[C@H](O)[C@@H](O)[C@H](O)[C@H](O)CO (stereo partly drawn) [Example 2] |
